Data reported in PubChem BioAssay AID2060912 (Molecular Pharmacology Branch, DTP, NCI, 2025).

Test system: HUVEC/MSC spheroids viability
Test: Human HUVEC/MSC cell line growth inhibition [KRAS2];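 for viability, T/C: percent of DMSO vehicle control luminescence so 100% = untreated viability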
Details: for IC50: curve of first compound; for viability, T/C: stronger effect = lower value
Summary of the method: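 Endothelial cells (HUVEC) plus mesenchymal stem cells, cultured at 37 °C/5% CO2 and assembled into spheroids without cancer cells, served as a stromal control. Drug pairs and single agents spanned half-log ranges anchored to clinical Cmax.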

[1] = second compound 0.0316 µM, first compound 0.0316 µM
[2] = second compound 0.0316 µM, first compound 0.1 µM
[3] = second compound 0.1 µM, first compound 0.0316 µM
[4] = second compound 0.1 µM, first compound 0.1 µM
[5] = second compound 0.316 µM, first compound 0.0316 µM
[6] = second compound 0.316 µM, first compound 0.1 µM
[7] = second compound 1 µM, first compound 0.0316 µM
[8] = second compound 1 µM, first compound 0.1 µM
[9] = second compound 3.16 µM, first compound 0.0316 µM
[10] = second compound 3.16 µM, first compound 0.1 µM
[11] = second compound 10 µM, first compound 0.0316 µM
[12] = second compound 10 µM, first compound 0.1 µM

## CC(=O)OC12COC1CC(O)C1(C)C(=O)C(O)C3=C(C)C(OC(=O)C(O)C(NC(=O)OC(C)(C)C)c4ccccc4)CC(O)(C(OC(=O)c4ccccc4)C21)C3(C)C (stereo unspecified) + CC1OCC2(CCN(c3cnc(Sc4ccnc(N)c4Cl)c(N)n3)CC2)C1N
Second compound 0.0316 µM
  IC50: > 3 µM
Second compound 0.1 µM
  IC50: > 3 µM
Second compound 0.316 µM
  IC50: > 3 µM
Second compound 1 µM
  IC50: > 3 µM
Second compound 3.16 µM
  IC50: > 3 µM
Second compound 10 µM
  IC50: 0.176 µM
Second compound 0.0316 µM, first compound 0.00949 µM
  viability, T/C: 58%
Second compound 0.0316 µM, first compound 0.03 µM
  viability, T/C: 65.1%
Second compound 0.0316 µM, first compound 0.0949 µM
  viability, T/C: 67.3%
Second compound 0.0316 µM, first compound 0.3 µM
  viability, T/C: 58.4%
Second compound 0.0316 µM, first compound 0.949 µM
  viability, T/C: 68.1%
Second compound 0.0316 µM, first compound 3 µM
  viability, T/C: 73.6%
Second compound 0.1 µM, first compound 0.00949 µM
  viability, T/C: 67%
Second compound 0.1 µM, first compound 0.03 µM
  viability, T/C: 66%
Second compound 0.1 µM, first compound 0.0949 µM
  viability, T/C: 71.4%
Second compound 0.1 µM, first compound 0.3 µM
  viability, T/C: 57.9%
Second compound 0.1 µM, first compound 0.949 µM
  viability, T/C: 73.2%
Second compound 0.1 µM, first compound 3 µM
  viability, T/C: 72.5%
Second compound 0.316 µM, first compound 0.00949 µM
  viability, T/C: 56.1%
Second compound 0.316 µM, first compound 0.03 µM
  viability, T/C: 63.3%
Second compound 0.316 µM, first compound 0.0949 µM
  viability, T/C: 50%
Second compound 0.316 µM, first compound 0.3 µM
  viability, T/C: 53.6%
Second compound 0.316 µM, first compound 0.949 µM
  viability, T/C: 62.5%
Second compound 0.316 µM, first compound 3 µM
  viability, T/C: 68.4%
Second compound 1 µM, first compound 0.00949 µM
  viability, T/C: 67.2%
Second compound 1 µM, first compound 0.03 µM
  viability, T/C: 58%
Second compound 1 µM, first compound 0.0949 µM
  viability, T/C: 47.1%
Second compound 1 µM, first compound 0.3 µM
  viability, T/C: 52.1%
Second compound 1 µM, first compound 0.949 µM
  viability, T/C: 59%
Second compound 1 µM, first compound 3 µM
  viability, T/C: 58.5%
Second compound 3.16 µM, first compound 0.00949 µM
  viability, T/C: 49.8%
Second compound 3.16 µM, first compound 0.03 µM
  viability, T/C: 59.5%
Second compound 3.16 µM, first compound 0.0949 µM
  viability, T/C: 49.8%
Second compound 3.16 µM, first compound 0.3 µM
  viability, T/C: 54.2%
Second compound 3.16 µM, first compound 0.949 µM
  viability, T/C: 48%
Second compound 3.16 µM, first compound 3 µM
  viability, T/C: 56.2%
Second compound 10 µM, first compound 0.00949 µM
  viability, T/C: 55.6%
Second compound 10 µM, first compound 0.03 µM
  viability, T/C: 61.8%
Second compound 10 µM, first compound 0.0949 µM
  viability, T/C: 41.7%
Second compound 10 µM, first compound 0.3 µM
  viability, T/C: 50.3%
Second compound 10 µM, first compound 0.949 µM
  viability, T/C: 50.9%
Second compound 10 µM, first compound 3 µM
  viability, T/C: 46.7%

## CN(C)C/C=C/C(=O)Nc1cc2c(Nc3ccc(F)c(Cl)c3)ncnc2cc1O[C@H]1CCOC1 + CC1OCC2(CCN(c3cnc(Sc4ccnc(N)c4Cl)c(N)n3)CC2)C1N
Second compound 0.0316 µM
  IC50: > 0.1 µM
Second compound 0.1 µM
  IC50: > 0.1 µM
Second compound 0.316 µM
  IC50: > 0.1 µM
Second compound 1 µM
  IC50: > 0.1 µM
Second compound 3.16 µM
  IC50: > 0.1 µM
Second compound 10 µM
  IC50: > 0.1 µM
Second compound 0.0316 µM, first compound 0.000316 µM
  viability, T/C: 110%
Second compound 0.0316 µM, first compound 0.001 µM
  viability, T/C: 123%
Second compound 0.0316 µM, first compound 0.00316 µM
  viability, T/C: 121%
Second compound 0.0316 µM, first compound 0.01 µM
  viability, T/C: 103%
[1]
  viability, T/C: 99.1%
[2]
  viability, T/C: 117%
Second compound 0.1 µM, first compound 0.000316 µM
  viability, T/C: 108%
Second compound 0.1 µM, first compound 0.001 µM
  viability, T/C: 148%
Second compound 0.1 µM, first compound 0.00316 µM
  viability, T/C: 105%
Second compound 0.1 µM, first compound 0.01 µM
  viability, T/C: 110%
[3]
  viability, T/C: 98.7%
[4]
  viability, T/C: 126%
Second compound 0.316 µM, first compound 0.000316 µM
  viability, T/C: 108%
Second compound 0.316 µM, first compound 0.001 µM
  viability, T/C: 114%
Second compound 0.316 µM, first compound 0.00316 µM
  viability, T/C: 99.4%
Second compound 0.316 µM, first compound 0.01 µM
  viability, T/C: 99.3%
[5]
  viability, T/C: 101%
[6]
  viability, T/C: 126%
Second compound 1 µM, first compound 0.000316 µM
  viability, T/C: 92.6%
Second compound 1 µM, first compound 0.001 µM
  viability, T/C: 118%
Second compound 1 µM, first compound 0.00316 µM
  viability, T/C: 106%
Second compound 1 µM, first compound 0.01 µM
  viability, T/C: 86.8%
[7]
  viability, T/C: 102%
[8]
  viability, T/C: 108%
Second compound 3.16 µM, first compound 0.000316 µM
  viability, T/C: 79.7%
Second compound 3.16 µM, first compound 0.001 µM
  viability, T/C: 96.2%
Second compound 3.16 µM, first compound 0.00316 µM
  viability, T/C: 77.9%
Second compound 3.16 µM, first compound 0.01 µM
  viability, T/C: 94.1%
[9]
  viability, T/C: 89.2%
[10]
  viability, T/C: 103%
Second compound 10 µM, first compound 0.000316 µM
  viability, T/C: 71.7%
Second compound 10 µM, first compound 0.001 µM
  viability, T/C: 85.9%
Second compound 10 µM, first compound 0.00316 µM
  viability, T/C: 66.5%
Second compound 10 µM, first compound 0.01 µM
  viability, T/C: 66.3%
[11]
  viability, T/C: 80.9%
[12]
  viability, T/C: 89.3%

## O=C(c1cc(Cc2n[nH]c(=O)c3ccccc23)ccc1F)N1CCN(C(=O)C2CC2)CC1 + CC1OCC2(CCN(c3cnc(Sc4ccnc(N)c4Cl)c(N)n3)CC2)C1N
Second compound 0.0316 µM
  IC50: > 10 µM
Second compound 0.1 µM
  IC50: > 10 µM
Second compound 0.316 µM
  IC50: > 10 µM
Second compound 1 µM
  IC50: > 10 µM
Second compound 3.16 µM
  IC50: > 10 µM
Second compound 10 µM
  IC50: > 10 µM
[1]
  viability, T/C: 102%
[2]
  viability, T/C: 117%
Second compound 0.0316 µM, first compound 0.316 µM
  viability, T/C: 100%
Second compound 0.0316 µM, first compound 1 µM
  viability, T/C: 98.7%
Second compound 0.0316 µM, first compound 3.16 µM
  viability, T/C: 101%
Second compound 0.0316 µM, first compound 10 µM
  viability, T/C: 132%
[3]
  viability, T/C: 101%
[4]
  viability, T/C: 101%
Second compound 0.1 µM, first compound 0.316 µM
  viability, T/C: 104%
Second compound 0.1 µM, first compound 1 µM
  viability, T/C: 108%
Second compound 0.1 µM, first compound 3.16 µM
  viability, T/C: 109%
Second compound 0.1 µM, first compound 10 µM
  viability, T/C: 94.6%
[5]
  viability, T/C: 102%
[6]
  viability, T/C: 119%
Second compound 0.316 µM, first compound 0.316 µM
  viability, T/C: 99%
Second compound 0.316 µM, first compound 1 µM
  viability, T/C: 101%
Second compound 0.316 µM, first compound 3.16 µM
  viability, T/C: 88%
Second compound 0.316 µM, first compound 10 µM
  viability, T/C: 89.4%
[7]
  viability, T/C: 85.4%
[8]
  viability, T/C: 110%
Second compound 1 µM, first compound 0.316 µM
  viability, T/C: 95.6%
Second compound 1 µM, first compound 1 µM
  viability, T/C: 87.2%
Second compound 1 µM, first compound 3.16 µM
  viability, T/C: 86.6%
Second compound 1 µM, first compound 10 µM
  viability, T/C: 88.4%
[9]
  viability, T/C: 74.2%
[10]
  viability, T/C: 96.3%
Second compound 3.16 µM, first compound 0.316 µM
  viability, T/C: 91.8%
Second compound 3.16 µM, first compound 1 µM
  viability, T/C: 89.8%
Second compound 3.16 µM, first compound 3.16 µM
  viability, T/C: 98.1%
Second compound 3.16 µM, first compound 10 µM
  viability, T/C: 90.8%
[11]
  viability, T/C: 72.5%
[12]
  viability, T/C: 79.7%
Second compound 10 µM, first compound 0.316 µM
  viability, T/C: 79.9%
Second compound 10 µM, first compound 1 µM
  viability, T/C: 67.6%
Second compound 10 µM, first compound 3.16 µM
  viability, T/C: 81.5%
Second compound 10 µM, first compound 10 µM
  viability, T/C: 76.4%
